PubChem BioAssay AID2060513 (Molecular Pharmacology Branch, DTP, NCI, 2025)

System: 299254-011-R-J1-PDC complex spheroids viability
Assay: Anticancer human tumor 299254-011-R-J1-PDC patient-derived melanoma cell line growth inhibition [GQUAD]
Conditions: for IC50: curve of first compound; for viability, T/C: stronger effect = lower value; active = viability on the fitted dose curve at most 10% of control; inactive = the rest
Procedure, shortened: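 Tumor cells were grown as complex spheroids with HUVEC endothelial cells and mesenchymal stem cells as stroma. G-quadruplex stabilizers were combined with targeted agents over half-log dilutions from near the clinical Cmax, or from 10 microM.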

[1] = second compound 0.0316 µM, first compound 0.0316 µM
[2] = second compound 0.0316 µM, first compound 0.1 µM
[3] = second compound 0.0316 µM, first compound 0.316 µM
[4] = second compound 0.0316 µM, first compound 1 µM
[5] = second compound 0.0316 µM, first compound 3.16 µM
[6] = second compound 0.0316 µM, first compound 10 µM
[7] = second compound 0.1 µM, first compound 0.0316 µM
[8] = second compound 0.1 µM, first compound 0.1 µM
[9] = second compound 0.1 µM, first compound 0.316 µM
[10] = second compound 0.1 µM, first compound 1 µM
[11] = second compound 0.1 µM, first compound 3.16 µM
[12] = second compound 0.1 µM, first compound 10 µM
[13] = second compound 0.316 µM, first compound 0.0316 µM
[14] = second compound 0.316 µM, first compound 0.1 µM
[15] = second compound 0.316 µM, first compound 0.316 µM
[16] = second compound 0.316 µM, first compound 1 µM
[17] = second compound 0.316 µM, first compound 3.16 µM
[18] = second compound 0.316 µM, first compound 10 µM
[19] = second compound 1 µM, first compound 0.0316 µM
[20] = second compound 1 µM, first compound 0.1 µM
[21] = second compound 1 µM, first compound 0.316 µM
[22] = second compound 1 µM, first compound 1 µM
[23] = second compound 1 µM, first compound 3.16 µM
[24] = second compound 1 µM, first compound 10 µM
[25] = second compound 3.16 µM, first compound 0.0316 µM
[26] = second compound 3.16 µM, first compound 0.1 µM
[27] = second compound 3.16 µM, first compound 0.316 µM
[28] = second compound 3.16 µM, first compound 1 µM
[29] = second compound 3.16 µM, first compound 3.16 µM
[30] = second compound 3.16 µM, first compound 10 µM
[31] = second compound 10 µM, first compound 0.0316 µM
[32] = second compound 10 µM, first compound 0.1 µM
[33] = second compound 10 µM, first compound 0.316 µM
[34] = second compound 10 µM, first compound 1 µM
[35] = second compound 10 µM, first compound 3.16 µM
[36] = second compound 10 µM, first compound 10 µM
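Note: spheroids exposed to the agents for seven days before readout.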
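Throughout, for viability, T/C: percent viability relative to DMSO vehicle control wells = 100%.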

COc1cccc2c1C(=O)c1c(O)c3c(c(O)c1C2=O)CC(O)(C(=O)CO)CC3OC1CC(N)C(O)C(C)O1 (stereo unspecified) + CN(C)c1ccc(Nc2c3ccc(NC(=O)CCN4CCCC4)cc3nc3cc(NC(=O)CCN4CCCC4)ccc23)cc1
6.44 µM: IC50 (second compound 10 µM)
4.9 µM: IC50 (second compound 1 µM)
inactive: viability, T/C [1] 109% | viability, T/C [2] 103% | viability, T/C [3] 90.5% | viability, T/C [4] 72.5% | viability, T/C [5] 61.9% | viability, T/C [6] 28.8% | viability, T/C [7] 93.1% | viability, T/C [8] 106% | viability, T/C [9] 94.6% | viability, T/C [10] 79.8% | viability, T/C [11] 71% | viability, T/C [12] 31.5% | viability, T/C [13] 112% | viability, T/C [14] 110% | viability, T/C [15] 81% | viability, T/C [16] 87.1% | viability, T/C [17] 64.8% | viability, T/C [18] 30.7% | viability, T/C [19] 99.7% | viability, T/C [20] 96.3% | viability, T/C [21] 90.1% | viability, T/C [22] 89.5% | viability, T/C [23] 63.4% | viability, T/C [24] 27.3% | viability, T/C [25] 109% | viability, T/C [26] 107% | viability, T/C [27] 83.7% | viability, T/C [28] 92.4% | viability, T/C [29] 72.4% | viability, T/C [30] 27.3% | viability, T/C [31] 91.8% | viability, T/C [32] 110% | viability, T/C [33] 87.6% | viability, T/C [34] 99.6% | viability, T/C [35] 75.9% | viability, T/C [36] 34%
4.26 µM: IC50 (second compound 0.0316 µM)
5.65 µM: IC50 (second compound 0.1 µM)
5.03 µM: IC50 (second compound 0.316 µM)
5.46 µM: IC50 (second compound 3.16 µM)

CC(C)(O)C1CCC(Nc2ccc3ncc(-c4cccc(C(F)(F)F)c4)n3n2)CC1 (stereo unspecified) + CN(C)c1ccc(Nc2c3ccc(NC(=O)CCN4CCCC4)cc3nc3cc(NC(=O)CCN4CCCC4)ccc23)cc1
> 10 µM: IC50 (second compound 0.0316 µM) | IC50 (second compound 0.1 µM) | IC50 (second compound 0.316 µM) | IC50 (second compound 1 µM) | IC50 (second compound 3.16 µM)
inactive: viability, T/C [1] 107% | viability, T/C [2] 117% | viability, T/C [3] 130% | viability, T/C [4] 98.6% | viability, T/C [5] 95.1% | viability, T/C [6] 92.2% | viability, T/C [7] 97.2% | viability, T/C [8] 94.7% | viability, T/C [9] 97.8% | viability, T/C [10] 94.5% | viability, T/C [11] 94% | viability, T/C [12] 121% | viability, T/C [13] 103% | viability, T/C [14] 92% | viability, T/C [15] 101% | viability, T/C [16] 89.5% | viability, T/C [17] 85.1% | viability, T/C [18] 133% | viability, T/C [19] 89.7% | viability, T/C [20] 103% | viability, T/C [21] 88.6% | viability, T/C [22] 107% | viability, T/C [23] 82.8% | viability, T/C [24] 100% | viability, T/C [25] 91.5% | viability, T/C [26] 93.9% | viability, T/C [27] 117% | viability, T/C [28] 112% | viability, T/C [29] 65.5% | viability, T/C [30] 84.2% | viability, T/C [31] 105% | viability, T/C [32] 103% | viability, T/C [33] 103% | viability, T/C [34] 111% | viability, T/C [35] 27.6% | viability, T/C [36] 56.4%
2.73 µM: IC50 (second compound 10 µM)

C=CC(=O)N1CCN(c2nc(=O)n(-c3c(C)ccnc3C(C)C)c3nc(-c4c(O)cccc4F)c(F)cc23)C(C)C1 (stereo unspecified) + Cc1[nH]c2ccc(F)cc2c1-c1nc2c3cccnc3c3ncccc3c2[nH]1
inactive: viability, T/C [1] 85% | viability, T/C [2] 63.2% | viability, T/C [3] 62% | viability, T/C [4] 56% | viability, T/C [5] 67.1% | viability, T/C [6] 75.7% | viability, T/C [7] 72.9% | viability, T/C [8] 85% | viability, T/C [9] 60.5% | viability, T/C [10] 56.7% | viability, T/C [11] 66.2% | viability, T/C [12] 78.3% | viability, T/C [13] 67.3% | viability, T/C [14] 80.1% | viability, T/C [15] 63.1% | viability, T/C [16] 64.6% | viability, T/C [17] 74.2% | viability, T/C [18] 69.9% | viability, T/C [19] 67.8% | viability, T/C [20] 69.4% | viability, T/C [21] 66.2% | viability, T/C [22] 79.8% | viability, T/C [23] 63.7% | viability, T/C [24] 86.8% | viability, T/C [25] 73% | viability, T/C [26] 81.1% | viability, T/C [27] 73.8% | viability, T/C [28] 78.4% | viability, T/C [29] 74.7% | viability, T/C [30] 69.9% | viability, T/C [31] 74.4% | viability, T/C [32] 71.5% | viability, T/C [33] 72.5% | viability, T/C [34] 67.1% | viability, T/C [35] 77.6% | viability, T/C [36] 59.4%
> 10 µM: IC50 (second compound 0.0316 µM) | IC50 (second compound 0.1 µM) | IC50 (second compound 0.316 µM) | IC50 (second compound 1 µM) | IC50 (second compound 3.16 µM) | IC50 (second compound 10 µM)
